pIC50: −log10 of the molar value. Activity calls are given as the source filed them. The rule behind the calls is not given here.
Columns and labels:
[1] = system: Plasma; assay: Anti-platelet aggregation in platelet-rich plasma of male Japanese white rabbit assessed as inhibition of ADP-induced platelet aggregation preincubated for 15 mins followed by ADP addition measured up to 10 mins by Born's turbidometric method; type: functional, cell-free; conditions: Oryctolagus cuniculus
[2] = system: Plasma; assay: Anti-platelet aggregation in platelet-rich plasma of male human assessed as inhibition of ADP-induced platelet aggregation preincubated for 15 mins followed by ADP addition measured up to 10 mins by Born's turbidometric method; type: functional, cell-free
[3] = target: P2Y purinoceptor 1 (Rattus norvegicus, UniProt P49651); assay: Antagonist activity at P2Y1 receptor in platelet-rich plasma of rat assessed as inhibition of ADP-induced cytosolic Ca2+ level pretreated for 5 mins followed by ADP addition by FLUO-4 AM dye based analysis; type: functional, cell-free
Sequence of P2Y purinoceptor 1 (P49651 whole entry): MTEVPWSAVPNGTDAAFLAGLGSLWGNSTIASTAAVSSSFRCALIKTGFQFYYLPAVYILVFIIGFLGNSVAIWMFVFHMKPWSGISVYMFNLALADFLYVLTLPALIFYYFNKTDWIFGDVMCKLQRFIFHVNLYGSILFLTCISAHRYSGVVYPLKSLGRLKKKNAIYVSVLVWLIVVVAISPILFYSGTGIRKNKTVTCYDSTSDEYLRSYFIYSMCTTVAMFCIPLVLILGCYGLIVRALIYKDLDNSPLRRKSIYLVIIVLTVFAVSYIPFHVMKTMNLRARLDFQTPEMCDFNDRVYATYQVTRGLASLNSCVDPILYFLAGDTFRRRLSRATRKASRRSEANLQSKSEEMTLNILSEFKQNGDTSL

[4] = AUC (0 to infinity) male Sprague-Dawley rat at 10 mg/kg, po measured up to 24 hrs by LC-MS/MS analysis; type: ADME, organism-based; conditions: in vivo
[5] = MRT (0 to infinity) male Sprague-Dawley rat at 10 mg/kg, iv measured up to 24 hrs by LC-MS/MS analysis; type: ADME, organism-based; conditions: in vivo
[6] = system: Rattus norvegicus; assay: Neuroprotective activity in MCAO-induced brain damage Sprague-Dawley rat model assessed as reduction in brain infarction size administered intravenously immediately after arterial occlusion measured after 24 hrs by TTC staining based analysis; type: functional; conditions: route iv
[7] = system: Rattus norvegicus; assay: Neuroprotective activity in MCAO-induced brain damage Sprague-Dawley rat model assessed as reduction in neurological damage administered intravenously immediately after arterial occlusion measured after 24 hrs by Longa's method; type: functional, organism-based; conditions: dose 2.5-10 mg/kg, route iv
[8] = system: Rattus norvegicus; assay: Neuroprotective activity in MCAO-induced brain damage Sprague-Dawley rat model assessed as brain infarction size at 2.5 mg/kg, iv administered immediately after arterial occlusion measured after 24 hrs by TTC staining based analysis (reference value: 43.1 %); type: functional
[9] = system: Rattus norvegicus; assay: Neuroprotective activity in MCAO-induced brain damage Sprague-Dawley rat model assessed as brain infarction size at 10 mg/kg, iv administered immediately after arterial occlusion measured after 24 hrs by TTC staining based analysis (reference value: 43.1 %); type: functional
[10] = system: Rattus norvegicus; assay: Neuroprotective activity in MCAO-induced brain damage Sprague-Dawley rat model assessed as improvement in hippocampal neuron damage administered intravenously immediately after arterial occlusion measured after 24 hrs by H and E staining based analysis; type: functional, organism-based; conditions: dose 2.5-10 mg/kg, route iv
[11] = system: Rattus norvegicus; assay: Neuroprotective activity in MCAO-induced brain damage Sprague-Dawley rat model assessed as tightly arranged hippocampal neurons at 2.5 to 10 mg/kg, iv administered immediately after arterial occlusion measured after 24 hrs by H and E staining based analysis; type: functional, organism-based; conditions: dose 2.5-10 mg/kg
[12] = Half life male Sprague-Dawley rat at 10 mg/kg, po measured up to 24 hrs by LC-MS/MS analysis; type: ADME, organism-based; conditions: in vivo
[13] = MRT (0 to infinity) male Sprague-Dawley rat at 10 mg/kg, po measured up to 24 hrs by LC-MS/MS analysis; type: ADME, organism-based; conditions: in vivo
[14] = Apparent volume of distribution male Sprague-Dawley rat at 10 mg/kg, po measured up to 24 hrs by LC-MS/MS analysis; type: ADME, organism-based; conditions: in vivo

SMILES | pIC50 [1] | pIC50 [2] | pIC50 [3] | AUC(0-inf) ([4]; male, Sprague-Dawley) | MRT inf [5] | ED50 [6] | Activity [7] | Activity [8] | Activity [9] | Activity [10] | Activity [11] | t1/2 [12] | AUC ([4]; po, 10 mg/kg, 24 h) | MRT inf [13] | Vz [14]
N#Cc1cccc(-c2nc(C(F)F)c(C(=O)O)n2OCc2csc(N)n2)c1 | 5.73 | 5.47 | 5.66 | 36 ng·h/mL | 7.5 min | 8.39 mg/kg | Dose-dependent-effect; Outperformed Edaravone And Hnw001 At 10 Mg/Kg | 25.6% | 20.9% | Dose-dependent-effect; Activity Comparable To Hnw001, Bptu, Edaravone At 10 Mg/Kg | Active | – | – | – | –
N#Cc1cccc(Oc2nc(-c3cccc(C#N)c3)ncc2C(=O)O)c1 | 5.58 | 5.44 | 5.61 | – | 27.2 min | 4.6 mg/kg | Dose-dependent-effect; Outperformed Edaravone And Hnw001 At 10 Mg/Kg | 29.3% | 11.1% | Dose-dependent-effect; Activity Comparable To Hnw001, Bptu, Edaravone At 10 Mg/Kg | Active | 15.7 min | 0.986 µg·h/mL | 18.4 min | 7.668 L/kg
